Data published in PubChem BioAssay AID330 (DTP/NCI, 2004).
Where “and” joins values, the source holds several entries; their conditions need not be identical. Equal values may be shown once. Inconclusive results and toxic doses are left out.

Tested on: P388 leukemia ip, CD2F1 mice, survival T/C
Assay: NCI In Vivo Anticancer Drug Screen. Data for tumor model P388 Leukemia (intraperitoneal) in CD2F1 (CDF1) mice
Conditions: endpoint: median survival time, higher = longer survival
In short: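 Mice carrying the transplanted tumor received test compound or vehicle. Survival was recorded in each group, and the value is the treated-group measurement divided by that of the vehicle-treated control group.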

[1] = dose: 50.0 mg/kg/injection, schedule: Q01DX005 (ip), vehicle: saline with Tween-80
[2] = dose: 100.0 mg/kg/injection, schedule: Q01DX005 (ip), vehicle: saline with Tween-80
[3] = dose: 25.0 mg/kg/injection, schedule: Q01DX009 (ip), vehicle: saline
[4] = dose: 50.0 mg/kg/injection, schedule: Q01DX009 (ip), vehicle: saline

## Cc1ccc(S(=O)(=O)NN=C(c2ccccc2)c2ccccc2)cc1
dose: 12.5 mg/kg/injection, schedule: Q01DX009 (ip), vehicle: Klucel (hydroxypropylcellulose) (HPC)
  T/C: 98 % of control
dose: 25.0 mg/kg/injection, schedule: Q01DX009 (ip), vehicle: Klucel (hydroxypropylcellulose) (HPC)
  T/C: 93 % of control
dose: 50.0 mg/kg/injection, schedule: Q01DX009 (ip), vehicle: Klucel (hydroxypropylcellulose) (HPC)
  T/C: 87 % of control
dose: 100.0 mg/kg/injection, schedule: Q01DX009 (ip), vehicle: Klucel (hydroxypropylcellulose) (HPC)
  T/C: 88 % of control
dose: 200.0 mg/kg/injection, schedule: Q01DX009 (ip), vehicle: Klucel (hydroxypropylcellulose) (HPC)
  T/C: 86 % of control

## CN=C(c1ccc(NC(=O)c2cc(C(=O)Nc3ccc(C(=NC)N(C)C)cc3)cc([N+](=O)[O-])c2)cc1)N(C)C
dose: 6.25 mg/kg/injection, schedule: Q01DX005 (ip), vehicle: saline
  T/C: 101 % of control
dose: 12.5 mg/kg/injection, schedule: Q01DX005 (ip), vehicle: saline
  T/C: 98 % of control

## Brc1ncc2[nH]cnc2n1
[1]
  T/C: 99 % of control
[2]
  T/C: 100 % of control

## NC1C(NO)OC(CO)C(O)C1O (stereo not drawn)
dose: 50.0 mg/kg/injection, schedule: Q01DX005 (ip), vehicle: saline
  T/C: 97 % of control
dose: 100.0 mg/kg/injection, schedule: Q01DX005 (ip), vehicle: saline
  T/C: 96 % of control
dose: 200.0 mg/kg/injection, schedule: Q01DX005 (ip), vehicle: saline
  T/C: 97 % of control

## NC(CS)C(=O)NCC(=O)O (stereo not drawn)
dose: 50.0 mg/kg/injection, schedule: Q01DX009 (ip), vehicle: distilled water + alcohol
  T/C: 109 % of control
dose: 100.0 mg/kg/injection, schedule: Q01DX009 (ip), vehicle: distilled water + alcohol
  T/C: 98 % of control
dose: 200.0 mg/kg/injection, schedule: Q01DX009 (ip), vehicle: distilled water + alcohol
  T/C: 92 % of control

## CCC1=C[C@H]2CN(CCc3c([nH]c4ccccc34)[C@@](C(=O)OC)(c3cc4c(cc3OC)N(C)[C@H]3[C@@](O)(C(=O)NCCSC)[C@H](O)[C@]5(CC)C=CCN6CC[C@]43[C@@H]65)C2)C1
dose: 0.5 mg/kg/injection, schedule: Q01DX001 (ip), vehicle: water
  T/C: 117 % of control
dose: 2.0 mg/kg/injection, schedule: Q01DX001 (ip), vehicle: water
  T/C: 118 % of control
dose: 16.0 mg/kg/injection, schedule: Q01DX001 (ip), vehicle: water
  T/C: 154 % of control and 168 % of control
dose: 32.0 mg/kg/injection, schedule: Q01DX001 (ip), vehicle: water
  T/C: 191 % of control

## CN(C)C1C(O)C2Oc3c(cc(O)c4c3C(=O)c3cc5c(c(O)c3C4=O)C(N)CC(C)(O)C5)C(C)(O2)C1O (stereo not drawn)
dose: 5.0 mg/kg/injection, schedule: Q01DX009 (ip), vehicle: other
  T/C: 118 % of control

## CC(=O)O.CC(=O)O.[Co+2].[NH-]C(CCC(N)=O)C(=O)O.[NH-]C(CCC(N)=O)C(=O)O (stereo not drawn)
dose: 50.0 mg/kg/injection, schedule: Q01DX009 (ip), vehicle: saline with Tween-80
  T/C: 98 % of control

## Cc1nn(C23CC4CC(CC(C4)C2)C3)c(C(Cl)Cl)c1Cl
dose: 60.0 mg/kg/injection, schedule: Q01DX005 (ip), vehicle: saline with Tween-80
  T/C: 100 % of control
dose: 120.0 mg/kg/injection, schedule: Q01DX005 (ip), vehicle: saline with Tween-80
  T/C: 94 % of control
dose: 240.0 mg/kg/injection, schedule: Q01DX005 (ip), vehicle: saline with Tween-80
  T/C: 94 % of control

## CCOC(=O)C[n+]1cccc(S(=O)(=O)NC)c1
dose: 12.5 mg/kg/injection, schedule: Q01DX009 (ip), vehicle: saline
  T/C: 94 % of control
[3]
  T/C: 94 % of control
[4]
  T/C: 93 % of control

## CCOC(=O)C1(Br)CC2(C1)CC(Br)(C(=O)OCC)C2 (stereo not drawn)
dose: 100.0 mg/kg/injection, schedule: Q04DX002 (ip), vehicle: saline with Tween-80
  T/C: 101 % of control
dose: 200.0 mg/kg/injection, schedule: Q04DX002 (ip), vehicle: saline with Tween-80
  T/C: 103 % of control
dose: 400.0 mg/kg/injection, schedule: Q04DX002 (ip), vehicle: saline with Tween-80
  T/C: 100 % of control

## O=C(O)C(F)(F)F.O=C(O)C(F)(F)F.O=C(O)C(F)(F)F.O=C(O)C(F)(F)F.[Rh].[Rh]
[3]
  T/C: 86 % of control
[4]
  T/C: 110 % of control
dose: 50.0 mg/kg/injection, schedule: Q01DX009 (ip), vehicle: suspension in saline
  T/C: 104 % of control
dose: 100.0 mg/kg/injection, schedule: Q01DX009 (ip), vehicle: saline
  T/C: 122 % of control
dose: 100.0 mg/kg/injection, schedule: Q01DX009 (ip), vehicle: suspension in saline
  T/C: 123 % of control

## CC(C)=NNC1=NC(CC(C)C)P(=O)(NCCCCNP2(=O)SC(NN=C(C)C)=NC2CC(C)C)S1 (stereo not drawn)
[1]
  T/C: 103 % of control
[2]
  T/C: 103 % of control
dose: 200.0 mg/kg/injection, schedule: Q01DX005 (ip), vehicle: saline with Tween-80
  T/C: 101 % of control
